Data taken from PubChem BioAssay (NCI).
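96-well plates; 48 h exposure; 5 concentrations. Endpoints by linear interpolation between flanking doses. Not reached: highest tested concentration assigned. The concentration for full growth arrest is given as TGI.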

Experiments:
Test in all cases: DTP human tumour cell line panel, 48 h
NCI-H522 lung = test system: NCI-H522 lung
CAKI-1 renal = test system: CAKI-1 renal
A549 NSCLC = test system: A549 NSCLC
LOX IMVI melanoma = test system: LOX IMVI melanoma
LXFL 529 NSCLC = test system: LXFL 529 NSCLC
UACC-62 melanoma = test system: UACC-62 melanoma
ACHN renal = test system: ACHN renal
KM12 colon = test system: KM12 colon
EKVX NSCLC = test system: EKVX NSCLC
IGROV1 ovarian = test system: IGROV1 ovarian
RPMI-8226 leukemia = test system: RPMI-8226 leukemia
HCT-116 colon = test system: HCT-116 colon
SF-295 CNS = test system: SF-295 CNS
DLD-1 colon = test system: DLD-1 colon
NCI-H460 lung = test system: NCI-H460 lung
HOP-18 NSCLC = test system: HOP-18 NSCLC
786-0 renal = test system: 786-0 renal
CCRF-CEM leukemia = test system: CCRF-CEM leukemia
A498 renal = test system: A498 renal
SN12C renal = test system: SN12C renal
SK-MEL-28 melanoma = test system: SK-MEL-28 melanoma
COLO 205 colon = test system: COLO 205 colon
DMS 114 small cell lung = test system: DMS 114 small cell lung
M14 melanoma = test system: M14 melanoma
UO-31 renal = test system: UO-31 renal
NCI-H23 lung = test system: NCI-H23 lung
OVCAR-8 ovarian = test system: OVCAR-8 ovarian
OVCAR-4 ovarian = test system: OVCAR-4 ovarian
KM20L2 colon = test system: KM20L2 colon
K-562 leukemia = test system: K-562 leukemia
SNB-19 CNS = test system: SNB-19 CNS
SK-MEL-5 melanoma = test system: SK-MEL-5 melanoma
M19-MEL melanoma = test system: M19-MEL melanoma
MALME-3M melanoma = test system: MALME-3M melanoma
MOLT-4 leukemia = test system: MOLT-4 leukemia
SW-620 colon = test system: SW-620 colon
UACC-257 melanoma = test system: UACC-257 melanoma
DMS 273 small cell lung = test system: DMS 273 small cell lung
OVCAR-3 ovarian = test system: OVCAR-3 ovarian
SF-539 CNS = test system: SF-539 CNS
SR leukemia = test system: SR leukemia
HCC-2998 colon = test system: HCC-2998 colon
NCI-H226 lung = test system: NCI-H226 lung
SF-268 CNS = test system: SF-268 CNS
HOP-62 NSCLC = test system: HOP-62 NSCLC
HL-60(TB) leukemia = test system: HL-60(TB) leukemia
RXF 393 renal = test system: RXF 393 renal
TK-10 renal = test system: TK-10 renal
SNB-78 CNS = test system: SNB-78 CNS
U251 CNS = test system: U251 CNS
SK-MEL-2 melanoma = test system: SK-MEL-2 melanoma
HCT-15 colon = test system: HCT-15 colon
SNB-75 CNS = test system: SNB-75 CNS
SK-OV-3 ovarian = test system: SK-OV-3 ovarian
HOP-92 NSCLC = test system: HOP-92 NSCLC
HT29 colon = test system: HT29 colon
OVCAR-5 ovarian = test system: OVCAR-5 ovarian

Measured: TGI

COc1ccc(CC#N)c(OCc2ccccc2)c1
66 µM: NCI-H226 lung
79.3 µM: HOP-18 NSCLC
84.6 µM: SK-MEL-28 melanoma
85 µM: DLD-1 colon
79 µM: MALME-3M melanoma
67 µM: LXFL 529 NSCLC
50.6 µM: SK-MEL-5 melanoma
59.4 µM: A498 renal
not listed: HL-60(TB) leukemia | RXF 393 renal | TK-10 renal | SNB-78 CNS | U251 CNS | SK-MEL-2 melanoma | HCT-15 colon | SNB-75 CNS | SK-OV-3 ovarian | HOP-92 NSCLC | HT29 colon | OVCAR-5 ovarian
> 100 µM: all other assays above

C=CCC12CC(=O)CCC1CC(=O)C2 (configuration not stated)
not listed: LOX IMVI melanoma | EKVX NSCLC | SF-295 CNS | NCI-H23 lung | HOP-92 NSCLC | HT29 colon | OVCAR-5 ovarian
> 100 µM: all other assays above

O=C(Nc1ccn(CCOC(=O)c2ccccc2)c(=O)n1)c1ccccc1
not listed: DLD-1 colon | NCI-H23 lung | SNB-19 CNS | MOLT-4 leukemia | HCC-2998 colon
> 100 µM: all other assays above
